Where two headings read alike, the source gives them in different places.

Data set [1] relates to HT-29 (colon cancer) cells. The experiment in a line: MTT assay, HT-29 cells. Format: cell-based. The note with it: for IC50: 48 h of exposure, mean ± SD; for selectivity index (SI), HT-29: NIH-3T3 vs HT-29, 48 h. Here is the method:
(§1) HT-29 (colon cancer), HeLa (cervical cancer), and NIH-3T3 (mouse embryonic fibroblasts) cells were maintained in DMEM supplemented with 10% FBS, penicillin–streptomycin solution in a humidified (95% humidity) CO2 incubator (5% CO2). Thereafter, cells were harvested from the logarithmic phase and seeded into a 96-well plate at a concentration of 8 × 10^4 cells per well. After overnight seeding, cells were treated with different concentrations (2.5, 5, 10, 20, and 50 μM) of the tested ligands and vanadium complexes (H2L^1–4 and 1–4) for 48 h. The compounds’ stock solutions were prepared in DMSO. DMEM was used to prepare the final working concentration of the compounds, so that the final amount of DMSO is less than 2%. The effect of the complexes on the viability of the cells was evaluated through MTT dye reduction assay by measuring the optical density at 595 nm.[93] DMSO alone, used to dissolve the complexes, was also employed for the control group treatment.
(Tetrazolium dyes change colour on reduction, which living cells bring about.)

Data set [2] deals with HeLa (cervical cancer) cells. The experiment in a line: MTT assay, HeLa cells. The note with it: for IC50: 48 h of exposure, mean ± SD; for selectivity index (SI), HeLa: NIH-3T3 vs HeLa, 48 h. Format: cell-based. As for the experimental part: as §1
Data set [3] concerns NIH-3T3 (mouse embryonic fibroblasts) cells. The experiment in a line: MTT assay, NIH-3T3 normal cells. The note with it: 48 h of exposure, mean ± SD. Format: cell-based. Here is the method: as §1
Data set [4] concerns HT-29 (colon cancer) cells. Set-up: method as in PMID 36598160, doi:10.1002/aoc.6082. The note with it: identical experimental conditions; cited from earlier work.
Data set [5] deals with HeLa (cervical cancer) cells. Further details: method as in PMID 36598160, doi:10.1002/aoc.6082. The note with it: identical experimental conditions; cited from earlier work.
Data set [6] addresses T1, BSA (Bos taurus, UniProt P02769).
T1 construct: purchased Sigma-Aldrich
The experiment in a line: Fluorescence quenching titration of BSA with the complexes. Format: binding, bovine. The note with it: room temperature. As for the experimental part: The interaction between complexes 1–4 and BSA was studied using fluorescence quenching spectroscopy on a PerkinElmer LS 55 instrument. The instrumental response was corrected by means of a correction function provided by the manufacturer. The fluorescence experiments were carried out at room temperature and are steady-state measurements. Electronic absorption spectra were measured on a PerkinElmer Lambda35.
Fatty acid free BSA stock solution was prepared in PBS buffer (10 mM, pH 7.4), and the concentration was determined spectrophotometrically considering the extinction coefficient 44,309 M^–1 cm^–1 at 280 nm.[107] Stock solutions of the complexes (ca. 8 × 10^–4 M) were prepared in DMSO and further diluted (1:10) immediately before running the experiments. […] Fluorescence emission spectra were measured at room temperature with λex = 295 nm between 310 and 500 nm. Fluorescence spectra containing the same amount of complex but no BSA were recorded and subtracted from each corresponding emission spectrum of the mixtures. […] UV–vis spectra were measured for each solution, and the absorbance at excitation and emission wavelengths were used to make corrections for inner filter effects and reabsorption.[108],[109]
The Stern–Volmer equation was used to fit the fluorescence quenching data[109] […]

Data set [7] relates to HT-29 cells. The experiment in a line: Annexin V-FITC/PI apoptosis assay by flow cytometry. Format: cell-based. The note with it: 48 h, control 9%. Here is the method:
The apoptotic population induced by complexes 1 and 2 in HT-29 cells was evaluated using Annexin V-FITC Apoptosis Detection Kit (Abgenex) by a flow cytometer (BD Accuri C6 flow cytometer; BectoneDickinson).[125] HT-29 cells (3 × 10^5 cells/well) were cultured in a 6-well plate for 24 h. After the cells were adhered, different concentrations (5 and 10 μM) of the tested complexes were treated and incubated for further 48 h. Subsequently, the cells were collected by trypsinization and then suspended in 1X binding buffer. Finally, the suspension was stained with 5 μL of Annexin V and PI at room temperature and incubated for 15 min in the dark. Then, the samples were immediately analyzed under a BD Accuri C6 flow cytometer.
In general terms: In flow cytometry, cells or beads pass a laser one at a time.

Data set [8] in a line: Solubility observations. Format: physicochemical. The text has this: The non-oxido vanadium(IV) complexes (1–4) were synthesized by the reaction of tridentate dibasic ONS donor dithiocarbazates H2L^1–4 with [V^IVO(acac)2] in a 2:1 molar ratio in CH3CN medium (Scheme 1). […] They are soluble in polar aprotic solvents like DMSO, DMF, DCM, THF, and CH3CN and are partially soluble in aqueous media. The solid-state characterization of all compounds was done through elemental analysis, FTIR, and also with single-crystal X-ray diffraction studies of 1–3, while the solution phase characterization was carried out through UV–vis, ESI-MS spectrometry, and EPR spectroscopy. Details of all the characterizations are described in the following sections.
(§2) EPR spectra were recorded 24 h after the dissolution of the most soluble compound, [V^IV(L^1)2] (1), in DMSO and in an aqueous solution in phosphate buffer at pH 7.4 (Figure 8). […] The spectrum in DMSO is very similar to that in CH2Cl2 (cfr. traces in Figures 6 and 8), with the coexistence of fac (1a) and mer (1b) isomers.

Data set [9] can be described thus: Solution stability (ESI-MS, EPR). Format: physicochemical. As for the experimental part:
The stability of all complexes was established in water containing solvents through UV–vis, ESI mass spectrometry, and NMR and EPR spectroscopy.
The aged solutions in MeOH/H2O 90/10 (v/v) were diluted in CH3CN and analyzed by ESI-MS (concentration 50 μM). For all complexes, the most important species remained those detected at t = 0 h, i.e., the non-oxido V^IV complexes [V^IV(L^1–4)2]; the V^V species [V^V(L^1–4)2]^+, derived from the oxidation of the previous one, and [V^VO2(L^1–4)]^− were also detected. At these experimental conditions, the non-oxido V^IV complexes seem to be stable after 24 h with a slight increase in the oxidation process, as indicated by the increment of the relative amount of […] (Figure S14). […] This was considered during the docking studies.
as §2

T1 sequence (P02769 25-607): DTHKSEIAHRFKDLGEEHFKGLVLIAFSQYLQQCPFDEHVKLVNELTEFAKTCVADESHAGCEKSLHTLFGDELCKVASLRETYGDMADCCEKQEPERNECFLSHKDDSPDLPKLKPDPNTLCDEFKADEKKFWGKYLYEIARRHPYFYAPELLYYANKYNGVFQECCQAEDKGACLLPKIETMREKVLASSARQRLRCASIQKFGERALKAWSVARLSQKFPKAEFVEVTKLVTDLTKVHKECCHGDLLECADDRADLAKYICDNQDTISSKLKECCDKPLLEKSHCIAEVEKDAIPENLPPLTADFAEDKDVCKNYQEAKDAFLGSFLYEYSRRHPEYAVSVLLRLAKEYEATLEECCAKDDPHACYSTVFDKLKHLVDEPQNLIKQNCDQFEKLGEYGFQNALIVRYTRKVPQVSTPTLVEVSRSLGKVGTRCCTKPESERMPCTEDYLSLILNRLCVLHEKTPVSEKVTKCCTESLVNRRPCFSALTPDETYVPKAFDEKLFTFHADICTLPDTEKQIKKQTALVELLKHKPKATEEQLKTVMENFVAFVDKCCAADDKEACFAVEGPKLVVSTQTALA

By IC50 is commonly meant the concentration needed to halve the response being measured. Take `CCN(CC)c1ccc(/C=N/NC(=S)SC)c(O)c1` [H2L^1]: the concentration for half-maximal inhibition (IC50) in data set [1] (Homo sapiens, HT-29) worked out at 14.7 ± 0.6 µM; in data set [2] (Homo sapiens, HeLa), 15.7 ± 1.9 µM; in [3] (Mus musculus, NIH3T3) it was 23.5 ± 0.6 µM. Also, in data set [1], the “selectivity index (SI), HT-29” value was 1.6. For the same molecule, the “selectivity index (SI), HeLa” value in data set [2] is reported as 1.5.

Turning to `N.N.[Cl][Pt][Cl]` [cisplatin], the IC50 in data set [4] is 32.7 ± 0.6 µM; in data set [5], 25.5 ± 0.8 µM.

For the molecule `CCN(CC)c1ccc2c(c1)[O][V]1([O]c3cc(N(CC)CC)ccc3C=NN=C(SC)[S]1)[S]C(SC)=NN=C2` (centres unmarked) [complex 1, [V^IV(L^1)2]], the “n (equivalent binding sites of BSA)” value in data set [6] (PBS pH 7.4) was determined as 0.89. Also, in data set [6] (PBS pH 7.4, from double logarithm plot), the “KBC (binding constant)” value is given as 2.6 × 10^4. For the same molecule, the concentration for half-maximal inhibition (IC50) in [1] was 7.2 ± 0.6 µM; in data set [2] it was 9.3 ± 0.2 µM; in [3], 8.7 ± 1.1 µM. For the same molecule, the “selectivity index (SI), HT-29” value in data set [1] came out at 1.2. Moreover, the “selectivity index (SI), HeLa” value in data set [2] is 0.9. Moreover, the “apoptotic cells (sum of early and late apoptosis)” value is given as 15.8% in data set [7] (5 μM) and 48.8% in data set [7] (10 μM). The “behaviour in minimum essential medium (MEM, no FBS)” value in data set [8] (MEM instead of water) is “precipitation was evident from the beginning”. Besides, the “solubility in phosphate buffer” value in data set [8] (pH 7.4) is recorded as “not completely soluble”. Besides, in [9] (DMSO, after 24 h), the “stability by EPR in DMSO” value was “the pattern remains substantially unaltered, even though a significant decrease in the spectral intensity is detected”. Further, in data set [9] (phosphate buffer pH 7.4, after 24 h), the “stability by EPR in aqueous solution” value was “the resonances of [V^IV(L^1)2] are clearly visible”.

The record behind these values is paper PMC10367067, “A Series of Non-Oxido V^IV Complexes of Dibasic ONS Donor Ligands: Solution Stability, Chemical Transformations, Protein Interactions, and Antiproliferative Activity” (Inorganic Chemistry, 2023).
